Measured values as given in patent US7371780B2, “Use of calphostin C to treat drug-resistant tumor cells” (priority 2003, dated 2008).

How the values were obtained:
[1] = test system: caspase-8, PARP and cytochrome C in MCF-7TAX cells; experiment: Immunoblotting of apoptosis markers, MCF-7TAX; format: cell-based, human
Description: For preparation of mitochondrial and cytoplasmic cellular fractions, MCF-7, MCF-7TAX, and MCF-7DOX cells were grown in a monolayer to 70-90% confluence on 10 cm tissue culture plates. Twenty-four hours prior to extraction, the cells were treated with 50 nM light-activated calphostin C as described above. After this treatment, the cells were trypsinized, centrifuged at 1000 rpm in a Beckman GP centrifuge and washed with PBS. To the resulting cell pellet, 1 ml of ice-cold homogenization (HM) buffer was added. This buffer consisted of 85.55 g sucrose, 1.406 g MOPS, 0.292 g EDTA, and 1 ml ethanol per liter of solution, with a final pH of 7.2. Prior to use, 0.2 ml of 0.1 M PMSF, 1 Complete™ protease inhibitor tablet (Roche Diagnostics, Laval, QC), and 20 μl of 1 M DTT was added for 100 ml of HM buffer. Cells were then lysed 10 times by homogenization in a 2 ml dounce homogenizer. Nuclei in the lysate were then pelleted by centrifugation in a microfuge tube at 70 g for 10 minutes at 4° C. and the supernatant carefully removed. The supernatant was clarified by centrifugation at 1950 g for 10 minutes at 4° C. and the pellet (containing mitochondria) was resuspended in 50 μl of HM buffer. The remaining clarified supernatant was deemed the cytoplasmic fraction. […]

[2] = test system: MDA-MB231 human breast cancer cells; experiment: Death and cytoplasmic vacuolization, MDA-MB231; format: cell-based; conditions: data not shown

## COc1c(C[C@@H](C)OC(=O)Oc2ccc(O)cc2)c2c3c(C[C@@H](C)OC(=O)c4ccccc4)c(OC)c(=O)c4c(O)cc(OC)c(c5c(OC)cc(O)c(c1=O)c52)c43 [calphostin C]
[1]; light-activated calphostin C, whole cell extracts
  caspase-8 and PARP cleavage (protein levels): did not result in any change
[1]; mitochondrial and cytoplasmic fractions
  release of cytochrome C from mitochondria: no clear evidence for the release of cytochrome C
[2]
  induction of death and cytoplasmic vacuolization: induce both death and cytoplasmic vacuolization
